Patent US5652222A, “Selective inhibition of leukemic cell proliferation by bcr-abl antisense oligonucleotides” (Temple University-of The Commonwealth System of Higher …, priority 1993, dated 1997)

Experiments:
[1] = system: cells of CML patients in blast crisis, K-28 (b3a2) type junction; test: Colony formation of CML blast crisis patient cells expressing the b3a2 (K-28) junction; format: cell-based, human; conditions: antisense to L-6 junction on K-28 cells, compared with untreated cells
Text: To identify CML blast crisis patients carrying the second common type junction, in which bcr exon 3 is juxtaposed to c-abl exon 2, total RNA derived from cells of CML patients in blast crisis was reverse-transcribedwith synthetic primers. The 3' primer (SEQ ID NO:10) was complementary to 22 nucleotides of c-abl. exon 2. The 5' primer was the 22-mer GTCATCGTCCACTCAGCCACTG (SEQ ID NO:12) complementary to 22 nucleotides of bcr exon 3. The RNA was amplified by polymerase chain reaction according to Example 1. The amplification products were then hybridized with the synthetic 18-mer oligonucleotide GAAGGGCTTT TGAACTCT (SEQ ID NO:6), which is complementary to the b3a2 junction. After cloning of breakpoints in two patients, sequence analysis of several clones identified the b3a2 junction as precisely corresponding to the K-28 breakpoint shown in FIG. 3. (SEQ ID NO:4).
Utilizing the culture condition and oligomer treatment conditions of Example 1, cells were exposed to either no oligomer (FIG. 4A), the 18-nucleotide synthetic oligomer GAAGTGCTGT TGAACTCT (SEQ ID NO:5) partially complementary to the b3a2 junction, containing 9 nucleotides corresponding to bcr and 9 nucleotides corresponding to c-abl but with two mismatches (FIG. 4B); or the 18-nucleotide synthetic oligomer GAAGGGCTTT TGAACTCT (SEQ ID NO:6) completely complementary to the same bcr-abl junction (FIG. 4C).

[2] = system: Philadelphia chromosome-positive blast cells of CML patients in blast crisis, L-6 (b2a2) type junction; test: Colony formation of CML blast crisis patient cells expressing the b2a2 (L-6) junction; format: cell-based, human
BV173 cells (b2/a2) = test: Proliferation of BV173 cells expressing b2a2 junction; format: cell-based, human; conditions: in comparison to untreated control cells (FIG. 7)
Procedure: Amplification of the bcr-abl junction with a 5' primer corresponding to bcr exon 2, and a 3' primer corresponding to abl exon 2, followed by hybridization to an 18-mer specific for the b2/a2 or the b3/a2 junction identified the b2/a2 breakpoint in these cells (data not shown).
The sensitivity of the BV173 cells to b2/a2 antisense phosphorothioate oligodeoxynucleotides was assessed. Phosphorothioate oligodeoxynucleotides were prepared on either an Applied Biosystems Model 380B or 390Z Automated Synthesis instrument using conventional phosphoramidite monomers and manufacturer-recommended procedures, which included substitution of tetraethylthiuran (or an equivalent sulfur-donor reagent) for iodine-water-pyridine, […] reversed-phase preparative chromatography, detritylation, and obtaining the final product in the form of its sodium salt, all according to previously published methodology: Zon and Stec, in Oligonucleotides and Analogues A Practical Approach, F. Eckstein, Ed. (Oxford Univerisity Press, Oxford 1991), pp. 87-108; Zon and Geiser, Anti-Cancer Drug Design 6, 539 (1991); Vu and Hirschenbein, Tetrahedron Lett. 32, 3005-3008 (1991).
BV173 cells were cultured in the presence of phosphorothioate b2/a2 antisense 26-mer CGCTGAAGGG CTTCTTCCT ATTGAT (SEQ ID NO:29), the phosphorothioate sense sequence ATCAATAAGGAAGCCCTTCAGCG (SEQUENCE ID NO:34), or the b3/a2 (SEQ ID NO:31) or b1/a2 (SEQ ID N0:33) phosphorothioate antisense 26-mer. […] The sense oligomer SEQ ID NO:34 gave no inhibition (FIG. 7, -.largecircle.-) in comparison to untreated control cells (FIG. 7, -.quadrature.-).

[3] = system: BV173 cells (cALL antigen (CALLA)-positive cells); test: Immunofluorescence / flow cytometry of CALLA-positive cells in tissues of leukemic SCID mice; format: in vivo, SCID mice (human leukemic cells)
Procedure: A first assay comprised an immunofluorescence analysis of cALL antigen (CALLA)-positive cells. All BV173 cells but not normal murine hematopoietic cells express this antigen (assay sensitivity=10^-2). Single cell suspensions were prepared for flow cytometry analysis from peripheral blood, spleen and bone marrow cells of the leukemic SCID mice by centrifugation on a lymphocyte-M gradient (Cedarlane Labs, Ltd., Ontario, Canada). Cells (1×10^5) were stained with the FITC-conjugated mouse anti-CALLA monoclonal antibody (Becton-Dickinson Immunocytometry Systems, San Jose, Calif.) to human CD10 antigen. After staining, cells were washed and analyzed by flow cytometry using the Epics Profile Analyzer (Coulter Electronic).
To determine whether synthetic phosphorothioate oligodeoxynucleotides targeted against the bcr-abl junction of […] cells would modify the disease process in SCID mice. SCID mice were injected with 10^6 BV173 cells. The mice then received 1 mg of sense (ATCAATAAGG AAGCCCTTCAGCG, SEQ ID NO:34) or antisense ([…] ATTGAT, SEQ ID NO:29) b2/a2 bcr-abl phosphorothioate oligodeoxynucleotides (pyrogen leven <1 Eu/mg; 0.2 ml in Iscove modified Dulbecco medium in 5-10 seconds) intravenously for each of 9 consecutive days, beginning either 7 or 21 days after introducing 10^6 BV173 cells. Control mice received the diluent (iscove's modified Dulbecco medium) only. These time points approximate distinct disease stages in humans.

[4] = 1 mg/day i.v. x9 from day +7, 26 days after last treatment (6 weeks)
[5] = from day +21, 1 mg/day x9, 26 days after treatment (8 weeks)

Substance	inhibition of colony formation [1]	reduction of colony formation [1]	% Inhibition ([2]; Table 1, patient 1, number of colonies vs untreated) [%]	Number of Colonies, Antisense-treated ([2]; Table 1, patient 3, 40 μg/ml at start, 20 μg/ml 18 h later, untreated 480 ± 88) [colonies]	inhibition of proliferation of BV173 cells (BV173 cells (b2/a2))	CALLA+ cells, bone marrow ([3]; 1 mg/day i.v. x9 from day +7, 12 days after last treatment (4 weeks))	CALLA+ cells, bone marrow [3, 4] [%]	CALLA+ cells, peripheral blood [3, 4] [%]	CALLA+ cells, spleen [3, 4] [%]	CALLA+ cells, peripheral blood ([3]; from day +21, 1 mg/day x9, 12 days after last treatment (6 weeks), control 1.0±0.1)	CALLA+ cells, spleen ([3]; from day +21, 1 mg/day x9, 12 days after last treatment (6 weeks), control 1.9±0.1) [%]	CALLA+ cells, bone marrow ([3]; from day +21, 1 mg/day x9, 12 days after last treatment (6 weeks), control 17.7±1.8) [%]	CALLA+ cells, bone marrow [3, 5] [%]	CALLA+ cells, peripheral blood [3, 5] [%]	CALLA+ cells, spleen [3, 5] [%]
SEQ ID NO:3: synthetic 18-mer GAAGGGCTTC TTCCTTAT specific for the 18-nucleotide target sequence of the L-6 bcr-abl junction (antisense GAAGGGCTTCTTCCTTAT; chemistry not given here)	2.5-5%	No significant reduction of colony formation	75	50 ± 12											
SEQ ID NO:34: phosphorothioate sense sequence ATCAATAAGGAAGCCCTTCAGCG (23-mer b2a2 sense) (sense ATCAATAAGGAAGCCCTTCAGCG; all phosphorothioate, sugars by position and methylation of C not given here)					no inhibition	detected in bone marrow of control and sense-treated animal	16.8±1.8	1.9±0.2	4.1±0.2	0.9±0.1	1.9±0.8	10.0±0.5	23.9±5.0	2.0±0.3	9.9±1.8
